In brackets after ≈: the same amount, converted by molar mass. Activity calls are given as the source filed them. No cut-off for these calls is given here.
Legend:
[1] = Cytotoxicity against Sprague-Dawley rat calvarial osteoblast cells at 10 pM to 1 uM after 48 hrs by MTT assay; type: cell-based
Bone marrow cell [2] = assay: Antibone resorptive activity in mouse bone marrow cells assessed as inhibition of osteoclastogenesis at 100 nM after 7 days by TRAP assay in presence of MCSF and RANKL; type: functional, cell-based
Leishmania donovani [3] = assay: Antileishmanial activity against Leishmania donovani MHOM/IN/80/Dd8 promastigotes infected in mouse J774A1 cells at 10 ug/mL after 96 hrs by MTT assay relative to control; type: functional; conditions: for Activity: J774.A1; for inhibition at 10 µg/mL: MHOM/IN/80/Dd8, J774.A1, 96 h
Leishmania donovani [4] = assay: Antileishmanial activity against Leishmania donovani MHOM/IN/80/Dd8 amastigotes infected in mouse J774A1 cells at 10 ug/mL after 72 hrs by MTT assay relative to control; type: functional; conditions: for inhibition at 10 µg/mL: MHOM/IN/80/Dd8, J774.A1, 72 h; for Activity: J774.A1
Leishmania donovani [5] = assay: Antileishmanial activity against Leishmania donovani MHOM/IN/80/Dd8 promastigotes infected in mouse J774A1 cells at 6.25 ug/mL after 96 hrs by MTT assay relative to control; type: functional; conditions: MHOM/IN/80/Dd8, J774.A1, 96 h
Leishmania donovani [6] = assay: Antileishmanial activity against Leishmania donovani MHOM/IN/80/Dd8 amastigotes infected in mouse J774A1 cells at 5 ug/mL after 72 hrs by MTT assay relative to control; type: functional; conditions: MHOM/IN/80/Dd8, J774.A1, 72 h
Leishmania donovani [7] = assay: Antileishmanial activity against Leishmania donovani MHOM/IN/80/Dd8 amastigotes infected in mouse J774A1 cells at 2 ug/mL after 72 hrs by MTT assay relative to control; type: functional; conditions: MHOM/IN/80/Dd8, J774.A1, 72 h
Leishmania donovani [8] = assay: Antileishmanial activity against Leishmania donovani MHOM/IN/80/Dd8 amastigotes infected in mouse J774A1 cells at 1 ug/mL after 72 hrs by MTT assay relative to control; type: functional; conditions: MHOM/IN/80/Dd8, J774.A1, 72 h
Leishmania donovani [9] = assay: Antileishmanial activity against Leishmania donovani MHOM/IN/80/Dd8 amastigotes infected in mouse J774A1 cells after 72 hrs by MTT assay; type: functional, organism-based; conditions: MHOM/IN/80/Dd8, J774.A1, 72 h
[10] = Cytotoxicity against mouse J774A1 cells after 72 hrs by MTT assay; type: cell-based, J774.A1
Bone marrow cell [11] = assay: Antibone resorptive activity in mouse bone marrow cells assessed as inhibition of osteoclastogenesis at 100 pM after 7 days by TRAP assay in presence of MCSF and RANKL; type: functional, cell-based
Osteoclast [12] = assay: Induction of apoptosis in mouse osteoclast cells assessed as nucleosomal DNA fragmentation at 10 pM after 48 hrs by Hoechst 33258 staining; type: functional, cell-based
Bone marrow cell [13] = assay: Antibone resorptive activity in mouse bone marrow cells assessed as inhibition of osteoclastogenesis at 10 pM after 7 days by TRAP assay in presence of MCSF and RANKL; type: functional, cell-based
Mus musculus [14] = assay: Antibone resorptive activity in BALB/c ovariectomized mouse bone marrow cells assessed as inhibition of osteoclastogenesis at 10 mg/kg by TRAP assay relative to control in presence of MCSF and RANKL; type: functional; design: scale not given: the % may be the effect or the level left
Mus musculus [15] = assay: Induction of osteoclastogenesis in BALB/c ovariectomized mouse bone marrow cells at 10 mg/kg by TRAP assay relative to sham group in presence of MCSF and RANKL; type: functional
Leishmania donovani [16] = assay: Antileishmanial activity against Leishmania donovani MHOM/IN/80/Dd8 promastigotes infected in mouse J774A1 cells at 2000 ug/mL after 96 hrs by MTT assay relative to control; type: functional, organism-based; conditions: J774.A1
Leishmania donovani [17] = assay: Antileishmanial activity against Leishmania donovani MHOM/IN/80/Dd8 promastigotes infected in mouse J774A1 cells at 1000 ug/mL after 96 hrs by MTT assay relative to control; type: functional, organism-based; conditions: J774.A1
Leishmania donovani [18] = assay: Antileishmanial activity against Leishmania donovani MHOM/IN/80/Dd8 promastigotes infected in mouse J774A1 cells at 500 ug/mL after 96 hrs by MTT assay relative to control; type: functional, organism-based; conditions: J774.A1
Leishmania donovani [19] = assay: Antileishmanial activity against Leishmania donovani MHOM/IN/80/Dd8 amastigotes infected in mouse J774A1 cells at 200 ug/mL after 72 hrs by MTT assay relative to control; type: functional, organism-based; conditions: J774.A1
Leishmania donovani [20] = assay: Antileishmanial activity against Leishmania donovani MHOM/IN/80/Dd8 amastigotes infected in mouse J774A1 cells at 100 ug/mL after 72 hrs by MTT assay relative to control; type: functional, organism-based; conditions: J774.A1
Leishmania donovani [21] = assay: Antileishmanial activity against Leishmania donovani MHOM/IN/80/Dd8 amastigotes infected in mouse J774A1 cells at 50 ug/mL after 72 hrs by MTT assay relative to control; type: functional, organism-based; conditions: J774.A1
Leishmania donovani [22] = assay: Antileishmanial activity against Leishmania donovani MHOM/IN/80/Dd8 amastigotes infected in mouse J774A1 cells at 25 ug/mL after 72 hrs by MTT assay relative to control; type: functional, organism-based; conditions: J774.A1
Osteoclast [23] = assay: Induction of apoptosis in mouse osteoclast cells assessed as nucleosomal DNA fragmentation at 100 nM after 48 hrs by Hoechst 33258 staining; type: functional, cell-based

Compound: O=P([O-])([O-])C(O)(CCCCn1c2c(c3ccccc31)CCSc1ccccc1-2)P(=O)([O-])[O-].[Na+].[Na+].[Na+].[Na+]
- Activity [1]: Not Active
- Activity (Bone marrow cell [2]): Active
- Activity (Leishmania donovani [3]): inactive
- inhibition at 10 µg/mL (Leishmania donovani [4]): 55.3%

Compound: CCOP(=O)(OCC)C(O)(CCCCn1c2c(c3ccccc31)CCCc1ccccc1-2)P(=O)(OCC)OCC
- Activity [1]: Not Active
- Activity (Bone marrow cell [2]): Active
- inhibition at 10 µg/mL (Leishmania donovani [3]): 99.8%
- inhibition at 6.25 µg/mL (Leishmania donovani [5]): 86.4%
- inhibition at 5 µg/mL (Leishmania donovani [6]): 78.3%
- inhibition at 2 µg/mL (Leishmania donovani [7]): 80.6%
- inhibition at 1 µg/mL (Leishmania donovani [8]): 3%
- IC50 (Leishmania donovani [9]): 24 µg/mL (≈ 40.6 µM)
- CC50 at 72 h [10]: 5.81 µg/mL (≈ 9.82 µM)

Compound: CCOP(=O)(OCC)C(O)(CCCCn1c2c(c3ccccc31)CCSc1ccccc1-2)P(=O)(OCC)OCC
- Activity [1]: Not Active
- Activity (Bone marrow cell [2]): inactive
- Activity (Bone marrow cell [11]): Active
- Activity (Osteoclast [12]): Active
- Activity (Bone marrow cell [13]): Active
- Activity (Mus musculus [14]): 8.4%
- Activity (Mus musculus [15]): 40%
- inhibition at 10 µg/mL (Leishmania donovani [3]): 27.8%
- inhibition at 10 µg/mL (Leishmania donovani [4]): 9.45%

Compound: CCOP(=O)(OCC)C(O)(CCCCCn1c2c(c3ccccc31)CCCc1ccccc1-2)P(=O)(OCC)OCC
- Activity [1]: Not Active
- inhibition at 10 µg/mL (Leishmania donovani [3]): 85.7%
- inhibition at 6.25 µg/mL (Leishmania donovani [5]): 26.1%
- Activity (Leishmania donovani [4]): Toxic

Compound: O=P([O-])([O-])C(O)(CCCn1c2c(c3ccccc31)CCSc1ccccc1-2)P(=O)([O-])[O-].[Na+].[Na+].[Na+].[Na+]
- Activity [1]: Active
- Activity (Leishmania donovani [3]): inactive
- inhibition at 10 µg/mL (Leishmania donovani [4]): 6.3%

Compound: Sodium Stibogluconate
- inhibition (Leishmania donovani [16]): 72.8%
- inhibition (Leishmania donovani [17]): 55.5%
- inhibition (Leishmania donovani [18]): 29.1%
- inhibition (Leishmania donovani [19]): 99.8%
- inhibition (Leishmania donovani [20]): 78.8%
- inhibition (Leishmania donovani [21]): 48.4%
- inhibition (Leishmania donovani [22]): 11.4%

Compound: O=P([O-])([O-])C(O)(Cn1c2c(c3ccccc31)CCSc1ccccc1-2)P(=O)([O-])[O-].[Na+].[Na+].[Na+].[Na+]
- Activity [1]: Active
- Activity (Leishmania donovani [3]): inactive
- inhibition at 10 µg/mL (Leishmania donovani [4]): 33.5%

Compound: CCOP(=O)(OCC)C(O)(CCCCn1c2c(c3ccccc31)CCOc1ccccc1-2)P(=O)(OCC)OCC
- Activity [1]: Active
- inhibition at 10 µg/mL (Leishmania donovani [3]): 39.4%
- Activity (Leishmania donovani [4]): inactive

Compound: O=P([O-])([O-])C(O)(CCn1c2c(c3ccccc31)CCSc1ccccc1-2)P(=O)([O-])[O-].[Na+].[Na+].[Na+].[Na+]
- Activity [1]: Active
- inhibition at 10 µg/mL (Leishmania donovani [3]): 23.5%
- Activity (Leishmania donovani [4]): inactive

Compound: CCOP(=O)(OCC)C(O)(CCCCCCn1c2c(c3ccccc31)CCSc1ccccc1-2)P(=O)(OCC)OCC
- Activity [1]: Not Active
- Activity (Bone marrow cell [2]): Active
- inhibition at 10 µg/mL (Leishmania donovani [3]): 100%
- inhibition at 6.25 µg/mL (Leishmania donovani [5]): 90.1%
- inhibition at 10 µg/mL (Leishmania donovani [4]): 85%
- inhibition at 5 µg/mL (Leishmania donovani [6]): 67.2%
- inhibition at 2 µg/mL (Leishmania donovani [7]): 40%
- inhibition at 1 µg/mL (Leishmania donovani [8]): 25.5%
- IC50 (Leishmania donovani [9]): 2.56 µg/mL (≈ 4.01 µM)
- CC50 at 72 h [10]: 4.5 µg/mL (≈ 7.06 µM)

Compound: NCCCC(O)(P(=O)(O)O)P(=O)(O)O
- Activity (Bone marrow cell [2]): Active

Compound: CCOP(=O)(OCC)C(O)(CCCCCn1c2c(c3ccccc31)CCSc1ccccc1-2)P(=O)(OCC)OCC
- Activity [1]: Not Active
- Activity (Bone marrow cell [2]): inactive
- Activity (Bone marrow cell [11]): Active
- Activity (Osteoclast [23]): Active
- Activity (Mus musculus [14]): 9%
- Activity (Mus musculus [15]): 40%
- inhibition at 10 µg/mL (Leishmania donovani [3]): 100%
- inhibition at 6.25 µg/mL (Leishmania donovani [5]): 99.6%
- inhibition at 10 µg/mL (Leishmania donovani [4]): 78.2%
- inhibition at 5 µg/mL (Leishmania donovani [6]): 58.8%
- inhibition at 2 µg/mL (Leishmania donovani [7]): 16.8%
- inhibition at 1 µg/mL (Leishmania donovani [8]): 4.2%
- IC50 (Leishmania donovani [9]): 1.69 µg/mL (≈ 2.71 µM)
- CC50 at 72 h [10]: 3.66 µg/mL (≈ 5.87 µM)
